These results are taken from paper PMC10046377, “Inhibitors of the Oncogenic PA2G4-MYCN Protein-Protein Interface” (Cancers, 2023).

In one test the test system is SK-N-BE(2)-C cells. In words: Alamar Blue cell viability assay, SK-N-BE(2)-C. The test is classed as cell-based. Conditions: Homo sapiens, MYCN amplified neuroblastoma cell line. The source says:
(§1) The MYCN amplified neuroblastoma cell line SK-N-BE(2)-C was kindly provided by Professor June Biedler (Memorial Sloan Kettering Cancer Centre, New York, NY, USA), and Kelly was obtained from European Collection of Cell Cultures. The two normal lung fibroblast cell lines (MRC-5 and WI-38) were purchased from ATCC. SK-N-BE(2)-C shMYCN#2 doxycycline-inducible cell and Kelly shMYCN#2 doxycycline-inducible cell were custom-made by GenScript (Piscataway, NJ, USA). SK-N-BE(2)-C, SK-N-BE(2)-C shMYCN#2, and SHEP MYCN3 doxycycline-inducible cells were maintained in Dulbecco’s modified Eagle’s medium (DMEM) (Invitrogen, Life Technologies, Waltham, MA, USA) with 10% foetal calf serum (FCS). Kelly and Kelly shMYCN#2 doxycycline-inducible cell were cultured in Roswell Park Memorial Institute (RPMI) 1640 (Invitrogen, Life Technologies) with 10% FCS. MRC-5 and WI-38 were cultured in Alpha-MEM media (Invitrogen, Life Technologies) with 10% FCS. All cells were not cultured for more than 2 months. All used cell lines were authenticated by Cell Bank Australia (Westmead, NSW, Australia) as being free from mycoplasma, and cultured at 37 °C and 5% CO2 in a humidifier incubator.
(§2) Cell viability was determined by the Alamar Blue assay (75 mg resazurin, 12.5 mg methylene blue, 164.5 mg potassium hexacyanoferrate (III), 211 mg potassium hexacyanoferrate (II) trihydrate in 500 mL of phosphate buffered saline). After 6 h incubation with Alamar Blue, the change of fluorescence was measured by Victor 3 multilabel Plate Reader (Perkin Elmer Australia, Melburne, Australia) at an excitation wavelength of 560 nm and an emission wavelength of 590 nm.
(§3) We have shown that the PA2G4 protein increased the half-life of the oncoprotein MYCN through direct binding, and competitive chemical inhibition of this bond by WS6 reduced tumorigenicity both in vitro and in vivo [11]. […] Here, we explored the structure–activity relationship (SAR) of WS6 analogue compounds with the aim to increase efficacy and reduce toxicity. […] The in vitro cytotoxicity of these 14 compounds were measured by cell viability assays using Alamar Blue in MYCN amplified human neuroblastoma (SK-N-BE(2)-C and Kelly) cell lines compared to non-malignant (WI-38, MRC-5) myofibroblast cell lines (Figure 1B,C and Supplementary Figure S1A).
In general terms: Alamar Blue is a resazurin reagent that responds to reducing activity.

The next test concerns Kelly cells. The test can be described thus: Alamar Blue cell viability assay, Kelly. The test is classed as cell-based. Conditions: Homo sapiens, MYCN amplified neuroblastoma cell line.
Text: as §1, §2, §3

In a further test the test system is MRC-5 cells. In words: Alamar Blue cell viability assay, MRC-5 non-malignant myofibroblasts. The format is cell-based. Conditions: Homo sapiens, MRC5.
Text: as §1, §2, §3

The subject of the next test is WI-38 cells. The test can be described thus: Alamar Blue cell viability assay, WI-38 non-malignant myofibroblasts. The format is cell-based. Conditions: Homo sapiens, read-out: IC50 WI-36.
Text: as §1, §2, §3

For test [1], the system named is neuroblastoma cells (Kelly, SK-N-BE(2)-C) compared to non-malignant myofibroblasts (WI-38, MRC-5). In words: Therapeutic window, neuroblastoma cells versus non-malignant myofibroblasts. The test is classed as cell-based, human. Conditions: non-malignant myofibroblast IC50 versus neuroblastoma cell IC50. The protocol: as §2, §3
Another test relates to MYCN. The test can be described thus: Western blot of MYCN protein level. The test is classed as cell-based, human. Conditions: Kelly and SK-N-BE(2)-C cells; #5333/#5338: 48 h, 10–30 μM. On the procedure:
(§4) Protein was extracted from cell pellets using RIPA buffer (Sigma) with 10% protease inhibitor (Sigma, Sydney, Australia). Quantification of proteins was conducted using Pierce BCA protein assay kit (Thermo Scientific), according to manufacturer’s instructions. A total of 30–50 μg protein samples were loaded onto Criterion TGX 10% precast gel (Bio-Rad) or NuPAGE™ 4–12% Mini Protein Gel (Invitrogen, Life technologies) and transferred to a nitrocellulose membrane (Bio-Rad). The membrane was blocked in 5% skim milk in Tris-buffered saline with Tween-20 (20 mM Tris-HCl (pH 7.6), 137 mM NaCl, 0.1% Tween-20) for an hour before incubation at 4 °C overnight with the following primary antibodies: mouse anti-MYCN(1:2000, Santa-Cruz, Cat# sc-53993), rabbit anti-PA2G4 (1:2000, Atlas Antibodies, Cat# HPA016484), rabbit anti-PARP (1:1000, Cell Signalling Technologies, Danvers, MA, USA, Cat# 9542), rabbit anti-Caspase-3 (1:500, Cell Signalling Technologies, Cat# 9662), mouse anti-Bcl-2 (1:1000, Cell Signalling Technologies, Cat# 15071), rabbit anti-Bax (1:1000, Cell Signalling Technologies, Cat# 2772), mouse anti-Vinculin (1:2000, Sigma, Cat# V9131), mouse anti-GAPDH (1:2000, Santa-cruz, Cat# sc-365062), rabbit anti-β-actin (1:5000, Sigma, Cat# SAB2100037), rabbit anti-GATA2 (1:1000, Cell Signalling Technologies, Cat# 4595), mouse anti-Flag/DYKDDDDK tag (1:1000, Cell Signalling Technologies, Cat# 8146). Anti-mouse or anti-rabbit horseradish peroxidase secondary antibodies (1:5000, Life technologies, Cat# 31430, 31460) were added and incubated for 2 h at room temperature. Immunoblots were visualised by Clarity ECL reagent (Bio-Rad) and ChemiDoc MP Imaging System (Bio-Rad). Quantification of protein expression was measured by Image Lab software (Bio-Rad) and normalised to loading control.
(§5) Next, we examined whether #5333 and #5338 treatment for 48 h affected the levels of WS6 target proteins, PA2G4, and MYCN in neuroblastoma cells. […] Cell viability was measured following #5333 and #5338 treatments for 48–72 h. […] Cell viability was measured following #5333, #5338, or WS6 treatments for 72 h.

A further test relates to PA2G4. The test can be described thus: Western blot of PA2G4 protein level. The test is classed as cell-based, human. Conditions: Kelly and SK-N-BE(2)-C cells; #5333/#5338: 48 h, seen more consistently at 30 μM, with the exception of #5333 in SK-N-BE(2)-C. On the procedure: as §4, §5
For orientation: Immunoblotting shows a protein as a band on a membrane.

The test system of the next test is SHEP MYCN3 cells. The test can be described thus: Alamar Blue viability, SHEP MYCN3 cells with Dox-inducible MYCN induction. The test is classed as cell-based, human. Conditions: Dox-induced MYCN expression, 72 h treatment, compared with DMSO treated controls and WS6.
Text: The MYCN amplified neuroblastoma cell line SK-N-BE(2)-C was kindly provided by Professor June Biedler (Memorial Sloan Kettering Cancer Centre, New York, NY, USA), and Kelly was obtained from European Collection of Cell Cultures. The two normal lung fibroblast cell lines (MRC-5 and WI-38) were purchased from ATCC. SK-N-BE(2)-C shMYCN#2 doxycycline-inducible cell and Kelly shMYCN#2 doxycycline-inducible cell were custom-made by GenScript (Piscataway, NJ, USA). SK-N-BE(2)-C, SK-N-BE(2)-C shMYCN#2, and SHEP MYCN3 doxycycline-inducible cells were maintained in Dulbecco’s modified Eagle’s medium (DMEM) (Invitrogen, Life Technologies, Waltham, MA, USA) with 10% foetal calf serum (FCS). […]
as §2
Next, we examined whether #5333 and #5338 treatment for 48 h affected the levels of WS6 target proteins, PA2G4, and MYCN in neuroblastoma cells. […] Cell viability was measured following #5333 and #5338 treatments for 48–72 h. […]

Broadly, the IC50 is the midpoint of a concentration-inhibition curve. For the molecule `Cc1cccc(Oc2cc(N3CCC(C(=O)N[C@@H](C)CCc4ccccc4)CC3)ncn2)c1C` [#5338], the IC50 is 23.3 µM in the test with SK-N-BE(2)-C cells, 30 µM in the test on Kelly cells, 100 µM in the test on MRC-5 cells and 100 µM in the test on WI-38 cells. In test [1], the “Therapeutic window (fold difference)” value is given as 3.8 fold. Also, in the test on MYCN, the “MYCN protein levels (Western blot)” value is reported as “significantly reduced MYCN levels”. Besides, in the test with PA2G4, the “PA2G4 protein levels (Western blot)” value is given as “Reductions in PA2G4 levels”. For the same molecule, the “change of IC50 on MYCN induction, SHEP MYCN3” value in the test on SHEP MYCN3 cells is “significant decrease in IC50”.

`Cc1cccc(Oc2cc(N3CCC(C(=O)NCc4cccc(Br)c4)CC3)ncn2)c1C` [#5333]: the IC50 in the test with SK-N-BE(2)-C cells came out at 26.5 µM; with Kelly cells it was 28.6 µM; with MRC-5 cells, 100 µM; with WI-38 cells, 100 µM. Moreover, the “Therapeutic window (fold difference)” value in test [1] worked out at 3.6 fold. For the same molecule, in the test on MYCN, the “MYCN protein levels (Western blot)” value was “significantly reduced MYCN levels”. Further, the “PA2G4 protein levels (Western blot)” value in the test on PA2G4 is given as “Reductions in PA2G4 levels”. Moreover, the “change of IC50 on MYCN induction, SHEP MYCN3” value with SHEP MYCN3 cells is recorded as “significant decrease in IC50”.

Regarding `Cc1cccc(Oc2cc(N3CCC(C(=O)NCc4cccc(C(F)(F)F)c4)CC3)ncn2)c1C` [#3567], the IC50 was 30 µM in the test with SK-N-BE(2)-C cells, 29 µM in the test on Kelly cells, 80 µM in the test on MRC-5 cells and 80 µM with WI-38 cells. The “Therapeutic window (fold difference)” value in test [1] is reported as 2.7 fold. Further, in the test on MYCN, the “MYCN protein levels (Western blot)” value is “significantly reduced”. Also, in the test with PA2G4, the “PA2G4 protein levels (Western blot)” value is “significantly reduced”.
